Measurements reported in ChEMBL document CHEMBL1142766, “4-Fluorosulfonylpiperidines: selective 5-HT2A ligands for the treatment of insomnia” (Bioorg Med Chem Lett, 2005).

How the values were obtained:
[1] = biological target: 5-hydroxytryptamine receptor 2A (Rattus norvegicus) (UniProt P14842); assay: In vivo occupancy at rat 5-HT2A receptor at 30 min after dosing at 10 mg/kg per orally; type: functional, organism-based
[2] = biological target: 5-hydroxytryptamine receptor 2A (Rattus norvegicus, UniProt P14842); assay: Binding affinity against rat 5-hydroxytryptamine 2A receptor
[3] = biological target: Voltage-gated inwardly rectifying potassium channel KCNH2 (Homo sapiens, UniProt Q12809); assay: Binding affinity against human IKr channel
[4] = biological target: 5-hydroxytryptamine receptor 2A (Homo sapiens, UniProt P28223); assay: Binding affinity against human 5-hydroxytryptamine 2A receptor
[5] = biological target: T1, 5-hydroxytryptamine receptor 2C (Homo sapiens, UniProt P28335)
T1 sequence (P28335 whole entry): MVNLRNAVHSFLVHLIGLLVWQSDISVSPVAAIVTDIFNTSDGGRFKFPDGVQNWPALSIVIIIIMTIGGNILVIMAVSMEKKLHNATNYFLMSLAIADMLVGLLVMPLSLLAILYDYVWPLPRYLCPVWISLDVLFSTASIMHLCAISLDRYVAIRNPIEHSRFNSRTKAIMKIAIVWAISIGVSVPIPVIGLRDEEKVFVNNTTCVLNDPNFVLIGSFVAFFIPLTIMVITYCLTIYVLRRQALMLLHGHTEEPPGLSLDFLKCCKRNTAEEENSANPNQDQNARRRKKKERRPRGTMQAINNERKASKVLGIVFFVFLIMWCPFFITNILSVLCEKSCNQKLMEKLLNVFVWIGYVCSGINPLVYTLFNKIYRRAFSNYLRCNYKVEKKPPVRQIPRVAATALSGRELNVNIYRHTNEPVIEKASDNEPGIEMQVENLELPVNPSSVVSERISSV
Description: Binding affinity against human 5-hydroxytryptamine 2c receptor

D(2) dopamine receptor = D(2) dopamine receptor (Homo sapiens, UniProt P14416); assay: Binding affinity against human Dopamine receptor D2
[6] = pKa value of the compound; type: physicochemical
[7] = Bioavailability in rat; type: ADME, organism-based; settings: in vivo
[8] = Plasma clearance after i.v. administration in rat; type: ADME, organism-based; settings: iv, read-out: Clp
[9] = Half life period was determined; type: ADME; settings: rat

Sequence of D(2) dopamine receptor (P14416 whole entry): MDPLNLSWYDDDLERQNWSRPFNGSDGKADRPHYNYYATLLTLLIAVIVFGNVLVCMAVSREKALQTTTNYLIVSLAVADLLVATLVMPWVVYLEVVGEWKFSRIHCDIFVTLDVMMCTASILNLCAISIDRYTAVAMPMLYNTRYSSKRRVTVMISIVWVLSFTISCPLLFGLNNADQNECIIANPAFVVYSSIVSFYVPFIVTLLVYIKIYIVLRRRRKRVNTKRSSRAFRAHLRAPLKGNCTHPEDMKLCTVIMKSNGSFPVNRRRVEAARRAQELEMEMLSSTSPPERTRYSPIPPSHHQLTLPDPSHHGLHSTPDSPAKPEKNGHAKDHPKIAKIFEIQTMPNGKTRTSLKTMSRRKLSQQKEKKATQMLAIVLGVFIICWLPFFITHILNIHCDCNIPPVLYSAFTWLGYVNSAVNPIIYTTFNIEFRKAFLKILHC
Sequence of Voltage-gated inwardly rectifying potassium channel KCNH2 (Q12809 whole entry): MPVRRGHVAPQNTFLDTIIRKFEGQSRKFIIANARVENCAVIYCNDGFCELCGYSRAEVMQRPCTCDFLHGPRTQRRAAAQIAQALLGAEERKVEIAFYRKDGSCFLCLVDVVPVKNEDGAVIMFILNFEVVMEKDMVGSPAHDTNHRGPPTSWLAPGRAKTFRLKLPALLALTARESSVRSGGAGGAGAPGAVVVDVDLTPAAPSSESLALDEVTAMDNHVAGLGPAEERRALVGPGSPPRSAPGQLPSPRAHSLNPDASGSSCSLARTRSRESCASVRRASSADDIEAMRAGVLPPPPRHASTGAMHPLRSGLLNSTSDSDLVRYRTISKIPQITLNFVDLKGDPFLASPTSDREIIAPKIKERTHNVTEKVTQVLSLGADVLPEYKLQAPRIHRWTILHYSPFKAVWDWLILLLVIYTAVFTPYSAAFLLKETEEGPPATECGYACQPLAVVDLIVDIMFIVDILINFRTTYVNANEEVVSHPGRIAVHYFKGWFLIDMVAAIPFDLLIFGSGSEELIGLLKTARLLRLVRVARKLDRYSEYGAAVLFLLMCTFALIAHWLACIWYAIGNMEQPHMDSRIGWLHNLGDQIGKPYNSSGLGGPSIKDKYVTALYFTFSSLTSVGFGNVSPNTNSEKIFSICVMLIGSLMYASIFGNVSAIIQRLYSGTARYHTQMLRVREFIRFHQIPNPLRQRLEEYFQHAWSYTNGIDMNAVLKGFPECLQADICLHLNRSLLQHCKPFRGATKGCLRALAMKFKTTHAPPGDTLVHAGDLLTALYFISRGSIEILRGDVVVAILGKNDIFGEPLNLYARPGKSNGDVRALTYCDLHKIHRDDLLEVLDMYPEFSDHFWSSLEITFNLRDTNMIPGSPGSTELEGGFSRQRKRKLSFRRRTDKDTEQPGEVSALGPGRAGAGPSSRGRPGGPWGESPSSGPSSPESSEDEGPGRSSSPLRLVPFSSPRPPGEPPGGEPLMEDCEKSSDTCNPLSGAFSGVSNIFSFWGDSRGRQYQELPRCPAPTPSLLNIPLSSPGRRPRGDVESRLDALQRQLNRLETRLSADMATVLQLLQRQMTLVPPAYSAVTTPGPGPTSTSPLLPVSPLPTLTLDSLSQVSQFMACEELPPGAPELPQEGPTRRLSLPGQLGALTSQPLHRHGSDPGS
Sequence of 5-hydroxytryptamine receptor 2A (Homo sapiens, UniProt P28223) (P28223 whole entry): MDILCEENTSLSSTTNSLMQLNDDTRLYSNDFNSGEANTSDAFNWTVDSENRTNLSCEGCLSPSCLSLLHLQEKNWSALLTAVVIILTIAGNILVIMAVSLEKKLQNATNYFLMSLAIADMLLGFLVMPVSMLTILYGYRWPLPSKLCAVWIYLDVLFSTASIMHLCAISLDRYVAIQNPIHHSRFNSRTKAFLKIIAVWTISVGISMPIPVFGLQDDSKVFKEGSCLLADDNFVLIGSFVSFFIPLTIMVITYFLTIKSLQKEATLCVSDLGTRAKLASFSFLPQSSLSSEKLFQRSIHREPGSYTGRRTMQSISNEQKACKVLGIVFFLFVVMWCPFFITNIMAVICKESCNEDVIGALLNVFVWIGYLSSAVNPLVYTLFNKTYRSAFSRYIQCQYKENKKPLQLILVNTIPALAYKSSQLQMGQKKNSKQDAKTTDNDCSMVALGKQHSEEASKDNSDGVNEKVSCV
Sequence of 5-hydroxytryptamine receptor 2A (Rattus norvegicus) (P14842 whole entry): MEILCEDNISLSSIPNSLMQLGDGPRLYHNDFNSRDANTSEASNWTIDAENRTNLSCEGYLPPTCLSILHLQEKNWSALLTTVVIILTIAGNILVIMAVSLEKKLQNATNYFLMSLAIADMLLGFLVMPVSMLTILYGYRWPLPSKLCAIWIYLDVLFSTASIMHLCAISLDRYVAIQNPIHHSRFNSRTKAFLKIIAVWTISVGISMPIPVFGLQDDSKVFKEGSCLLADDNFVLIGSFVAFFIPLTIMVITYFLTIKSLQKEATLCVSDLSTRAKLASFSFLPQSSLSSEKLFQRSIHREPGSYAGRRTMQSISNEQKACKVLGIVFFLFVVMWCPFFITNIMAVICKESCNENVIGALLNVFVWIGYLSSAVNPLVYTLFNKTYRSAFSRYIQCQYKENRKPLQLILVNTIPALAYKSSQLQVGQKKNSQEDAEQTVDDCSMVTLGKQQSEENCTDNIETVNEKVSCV
Sequence of 5-hydroxytryptamine receptor 2A (Rattus norvegicus, UniProt P14842) (P14842 whole entry): as above

Row | Activity [1] | Ki [2] | Ki [4] | Ki [5] | Ki (D(2) dopamine receptor) | pKa [6] | SMILES | Ki [3] | bioavailability [7] | clearance [8] | half-life [9]
1 | 37 | 0.0016 µM | 0.002 µM | > 4 µM | > 2 µM | – | O=S(=O)(c1ccc(-n2cccn2)cc1)C1(F)CCN(CCc2ccc(F)cc2F)CC1 | > 9 µM | – | – | –
2 | – | – | 0.00068 µM | 0.049 µM | > 1 µM | – | O=S(=O)(c1ccccc1)C1(F)CCN(CCc2ccc(F)cc2F)CC1 | 2.45 µM | – | – | –
3 | – | – | 0.00032 µM | 0.014 µM | 0.266 µM | – | O=S(=O)(c1ccccc1F)C1(F)CCN(CCc2ccc(F)cc2F)CC1 | 0.398 µM | – | – | –
4 | 62 | – | 0.00066 µM | > 4 µM | > 2 µM | – | O=S(=O)(c1ccc(-n2ccnn2)cc1)C1(F)CCN(CCc2ccc(F)cc2F)CC1 | > 9 µM | – | – | –
5 | – | 0.00051 µM | 0.0024 µM | 0.13 µM | > 1.5 µM | 6.3 | O=C(CN1CCC(S(=O)(=O)c2ccccc2)CC1)c1ccc(F)cc1F | 6.8 µM | – | – | –
6 | – | – | 0.00064 µM | – | > 1 µM | – | O=S(=O)(c1ccc(Cl)cc1)C1(F)CCN(CCc2ccc(F)cc2F)CC1 | – | – | – | –
7 | – | – | – | – | – | 7.3 | O=S(=O)(c1ccccc1)C1CCN(CCc2ccc(F)cc2F)CC1 | – | – | – | –
8 | 80 | 0.00133 µM | 0.0027 µM | 1.49 µM | 0.863 µM | 6.4 | N#Cc1ccc(S(=O)(=O)C2(F)CCN(CCc3ccc(F)cc3F)CC2)cc1 | 2.7 µM | – | – | –
9 | 49 | 0.0003 µM | 0.001 µM | 0.844 µM | > 2 µM | – | O=S(=O)(c1ccc(N2CCC2)cc1)C1(F)CCN(CCc2ccc(F)cc2F)CC1 | – | – | – | –
10 | – | – | – | – | – | 7.2 | O=S(=O)(c1ccc(F)cc1)C1CCN(CCc2ccc(F)cc2F)CC1 | – | – | – | –
11 | – | – | 0.0003 µM | 0.049 µM | 0.791 µM | – | O=S(=O)(c1cccc(F)c1)C1(F)CCN(CCc2ccc(F)cc2F)CC1 | – | – | – | –

Row | SMILES | Activity [1] | Ki [2] | Ki [4] | Ki [5] | Ki (D(2) dopamine receptor) | pKa [6] | Ki [3] | bioavailability [7] | clearance [8] | half-life [9]
12 | O=S(=O)(c1ccc(F)cc1)C1(F)CCN(CCc2ccc(F)cc2F)CC1 | 98% | 0.00063 µM | 0.00039 µM | 0.176 µM | 0.313 µM | 6.3 | 5.56 µM | 51% | 69 mL/min | 3.8 h
